Assay results published in publication PMC10355216, “The C-terminal tail of CSNAP attenuates the CSN complex” (Life Science Alliance, 2023).
Where no end group is shown, it is not given here.

Tests used:
CSN complex (CSN5) = assay: Co-immunoprecipitation (anti-GFP) of transiently expressed Cer fusions in HAP1 WT cells; type: cell-based; settings: transient expression of Cer fusions, anti-GFP pull-down, CSN5/GFP densitometry, at least three experiments
Excerpt: To define whether C-CSNAP can displace the endogenous CSN subunit from the complex, we transiently expressed several versions of C-CSNAP peptides with differing lengths, fused to the fluorescent protein cerulean (Cer) in WT HAP1 cells (Fig 2A) and cells lacking CSNAP (ΔCSNAP cells) (Fig S2A). We then performed co-immunoprecipitation analyses, using an antibody against GFP that recognizes the Cer tag (Figs 2B and C and S2B). […] Moreover, in ΔCSNAP cells, all C-CSNAP derivatives were efficiently incorporated into CSN (Fig S2B), whereas in WT cells, differential integration was observed (Fig 2B). […] Truncations of the 16 amino acid stretch from either end decreased or abolished the incorporation efficiency (Fig 2B and C).
Figure 2. The last 16 amino acids of CSNAP efficiently displace the endogenous CSNAP subunit. (A) The different CSNAP C-terminal sequences that were examined. The 16 amino acid sequence is highlighted in blue, and the N- or C-terminally truncated forms are labelled in green and magenta, respectively (numbering of residues are corresponding to full length CSNAP). […] (C) Quantification of the densitometry results of at least three independent immunoprecipitation experiments using an anti-GFP antibody, represented as mean ratios of immunoprecipitated CSN5/GFP, followed by normalization to the sample transfected with Cer, plotted as mean ± SEM. […]

CSN complex = assay: Reciprocal co-immunoprecipitation (anti-CSN3, anti-GFP) of Cer fusions in HAP1 cells; type: cell-based; settings: peptides fused to Cer expressed in HAP1 cells; anti-CSN3 and anti-GFP pull-downs
Excerpt: To clarify the ability of C-CSNAP peptides to displace CSNAP in cells, we stably expressed four versions of CSNAP, the 16AA and 20AA C-CSNAP, D42E and scrambled peptides fused to the fluorescent protein Cer in HAP1 cells. As control, we used HAP1 cells expressing Cer only. We then performed reciprocal co-immunoprecipitation analyses, using antibodies against CSN3 and GFP recognizing Cer (Figs 6A and S5). […] This is reflected by the higher intensity of the GFP band upon CSN3 pull down, and by the more intense CSN3 band following GFP co-immunoprecipitation.
(§1) Figure 6. Expression of C-CSNAP reduces cellular proliferation rate. (A) Immunoprecipitation analysis using anti-GFP antibody recognizing cerulean (Cer) from lysates of cells expressing the Cer-fused 16AA, 20AA, D42E, and scrambled C-CSNAP in HAP1 WT cells. The COP9 signalosome complex was pulled down from all cells, except when Cer is expressed alone or fused to the scrambled C-CSNAP. Similarly, reciprocal immunoprecipitation by an anti-CSN3 antibody pulled down only the Cer-fused 16AA, 20AA, or D42E C-CSNAP. (B) Stable overexpression of 16AA and 20AA C-CSNAP–Cer in HAP1 WT cells reduces their rate of proliferation. […] One-way ANOVA (P < 0.05) with Dunnett’s multiple comparisons test was used to compare means *P < 0.05, **P < 0.01.
Figure S5. […]

HAP1 WT cells = assay: Resazurin-based cell proliferation assay; settings: HAP1 WT cells stably expressing Cer fusions, 24 h after plating, five independent experiments
Excerpt: as §1, with “0.01. […]” for “0.01.”
HAP1 WT cells stably expressing Cer, 16AA, and 20AA C-CSNAP–Cer were trypsinized and counted. […] Fluorescence intensities at 560/600 nm (ex/em) were measured, and average intensities of four replicates in each plate were calculated, normalized against WT after background subtraction, and normalized values from five independent experiments were compared on a bar graph with SEM. Significance was calculated using repeated measurment one-way ANOVA (P < 0.05) with Dunnett’s multiple comparisons test was used to compare means to Cer as control *P < 0.05, **P < 0.01.

CSN^ΔCSNAP complex = assay: BIAcore surface plasmon resonance biosensor assay; settings: C-terminally biotinylated peptide immobilized on SA chip, CSN^ΔCSNAP 1-8 nM injected, 180 s binding, 1,000 s dissociation, 25°C, 1:1 binding fit
Excerpt: To validate the peptide array results, we used the surface plasmon resonance biosensor (Biacore) method to measure the binding affinities between C-CSNAP peptides and CSN^ΔCSNAP. We selected three peptides, the 16 residue C-terminal fragment (^42[…]^57, 16AA C-CSNAP) (Fig 4B), the 20 amino acid peptide (^38[…]^57, 20AA C-CSNAP) (Fig 4C), and a peptide containing the substitution of Asp to Glu at position 42 (D42E C-CSNAP) (Fig 4D). As a positive control, we used full-length CSNAP (Fig 4A), and a scrambled peptide ([…]) (Fig 4E) was used as a negative control. Interaction between the CSN^ΔCSNAP complex and the CSNAP variants was measured using a setting of 180 s binding followed by 1,000 s dissociation time (Fig 4).
Figure 4. C-CSNAP peptides display high affinity towards the CSN^ΔCSNAP complex. […] (F) Binding rate constants and affinities were determined via Biacore Evaluation Software analysis of SPR sensograms. […]
The experiments were carried out using Biacore SA200 SPR sensor (Biacore, GE Healthcare) with control software version 1.1 and Cytiva Series S Sensor chip SA. […] Data were analyzed in SA200 evaluation software version 1.1, with automatic fitting using parameter setting 1:1 binding (ka, kd, and tc global fit, Rmax and RI local fit).

Substance: 16AA C-CSNAP–Cer: 16AA C-CSNAP fused to the fluorescent protein cerulean (Cer), expressed in HAP1 cells (DFFNDFEDLFDDDDIQ; also: C-terminal fusion to Cerulean via Gly-Ser-Gly-Ser linker)
- association with / incorporation into the CSN complex, in words (CSN complex (CSN5)): highest degree of association with the CSN complex
- integration into the CSN complex, based on band intensities, in words (CSN complex): lower
- cell proliferation compared with cells expressing only Cer, in words (HAP1 WT cells): significant reductions in cell proliferation

Substance: 20AA C-CSNAP–Cer: 20AA C-CSNAP fused to the fluorescent protein cerulean (Cer), expressed in HAP1 cells (AVHADFFNDFEDLFDDDDIQ; also: fused to Cerulean, end not given here)
- integration into the CSN complex, based on band intensities, in words (CSN complex): highest ability to integrate into CSN
- cell proliferation compared with cells expressing only Cer, in words (HAP1 WT cells): significant reductions in cell proliferation

Substance: IDGENVSNLDYARKAT [scrambled peptide]
- Kd (CSN^ΔCSNAP complex): No measurable binding
